US8829015B2 (Novartis AG, priority 2005, dated 2014)
“Also recorded” adds a separate entry of the source. Structures can show the parent of a compound that is named as a salt.

How the values were obtained:
Format in all cases: physicochemical
[1] = Intrinsic dissolution rate (rotating disk)
Description: Intrinsic Dissolution Rate (IDR): Dissolution rate measurements were performed at 37° C. using the rotating disk method (VanKell Instrument). A single rotation speed of 200 rpm was used. For IDR in 0.1N HCl, an 800 mL volume, and for IDR in water, a 200 mL volume were used. The solution was continuously pumped through a UV measuring cell and recycled to the dissolution vessel.
The measurements were carried out on a VanKel instrument using a Cary 100 photometer.

[2] = Form conversion on exposure to solvent vapor, air, moisture or room conditions
[3] = Stability studies on storage

With Cc1cn(-c2cc(NC(=O)c3ccc(C)c(Nc4nccc(-c5cccnc5)n4)c3)cc(C(F)(F)F)c2)cn1 [Amorphous form of the hydrochloride salt] the “Intrinsic Dissolution Rate value” ([1]; dissolution medium HCl 0.1 N) was 0.2508 mg/min/cm^2, the “Intrinsic Dissolution Rate value” ([1]; dissolution medium pH 2 (citrate buffer)) was 0.0250 mg/min/cm^2 and the form conversion ([2]; in the presence of methanol vapor) was “converts to form B”. The form after storage ([3]; 1 month at 80° C. and 75% relative humidity) was “showed a mixture with form A” and the “form transition after storage” value ([3]; storage at various relative humidities) was “spontaneously crystallizes to form A; also recorded: spontaneously converts to the form A hydrochloride salt”.

For Cc1cn(-c2cc(NC(=O)c3ccc(C)c(Nc4nccc(-c5cccnc5)n4)c3)cc(C(F)(F)F)c2)cn1 [Form A′ of the hydrochloride salt], the form conversion ([2]; under room conditions) was “converts within a few minutes under room conditions to form A”.

In the case of Cc1cn(-c2cc(NC(=O)c3ccc(C)c(Nc4nccc(-c5cccnc5)n4)c3)cc(C(F)(F)F)c2)cn1 [Form B′ of the hydrochloride salt], the form conversion ([2]; exposed to moisture) is reported as “converts back to the monohydrate” and the form conversion ([2]; under room conditions) is reported as “converts within a few minutes under room conditions to form B”.

In the case of Cc1cn(-c2cc(NC(=O)c3ccc(C)c(Nc4nccc(-c5cccnc5)n4)c3)cc(C(F)(F)F)c2)cn1 [Form C′ of the hydrochloride salt], the form conversion ([2]; under room conditions) is reported as “converts within a few minutes under room conditions to a mixture of forms B and C”.

For Cc1cn(-c2cc(NC(=O)c3ccc(C)c(Nc4nccc(-c5cccnc5)n4)c3)cc(C(F)(F)F)c2)cn1 [Form SB of the hydrochloride salt], the form conversion ([2]; exposed to air) was “converts quickly to the monohydrate form B when exposed to air”.

With Cc1cn(-c2cc(NC(=O)c3ccc(C)c(Nc4nccc(-c5cccnc5)n4)c3)cc(C(F)(F)F)c2)cn1 [Form SC of the hydrochloride salt] the form conversion ([2]; exposed to air) was “converts quickly to the monohydrate form C when exposed to air”.
